From patent US4416877A, “Anti-atherosclerotic pharmaceutical compositions containing diphosphonate compounds” (priority 1979, dated 1983)
“Also recorded” adds a separate entry of the source. Structures can show the parent of a compound that is named as a salt. Where two headings read alike, the source gives them in different places.

Key:
[1] = tested on: tissue cholesterol; assay: Effects in cholesterol fed rats (serum, liver and aorta lipids); assay type: in vivo; conditions: for change in vivo at 200 mg/kg/day: Rattus norvegicus; for liver total lipids and/or liver cholesterol: cholesterol fed rats
Protocol: Effects of diphosphonates of formula (I) in cholesterol fed rats
In order to increase tissue cholesterol, especially liver, rats were fed a high fat-high cholesterol diet for 10 days to 3 months, with the following diet composition: casein 20%, butter 37%, cellulose 9.1%, dextrose 18,9%, cholesterol 4.5%, sodium cholate 1.8%, minerals 7.3%, vitamins 1%, choline 0.4%.
The rats were then fed normal food and were treated for 10 days to 3 months with different compounds (200 mg/kg/day). Serum parameters described above were measured. Liver and aorta lipids were extracted according to J. Folch et al (J. Biochem. 226, 497, 1957). Total lipids were determined by the sulfophosphovanillic reaction (see N. Zolner and K. Kirsch, Z. Ges. exp. Med. 135, 545, 1962) and cholesterol by the Liebermann-Burchard reaction or appropriate enzymatic reaction.
(§1) In above Table IV, results are given as % control values. Except for serum calcium, values which differ from control values by less than 15% are considered as non significant (NS).
Serum free fatty acids, triglycerides and phospholipids were measured in normal rats (N) and rats previously fed a cholesterol diet for 10 days (C.F.)
(§2) Serum α/β cholesterol, total lipids and cholesterol of liver and aorta were determined in normal rats (N) and rats which had previously been fed on high cholesterol diet (C.F.)

[2] = tested on: lipid metabolism; assay: Effects of diphosphonates on lipid metabolism in normal rats (serum lipids, α/β cholesterol); assay type: in vivo, male Wistar rats; conditions: for change in vivo at 200 mg/kg/day: Rattus norvegicus, po; for increased HDL lipids, especially HDL cholesterol: normal rats
Protocol: Effects of diphosphonates of formula (I) on lipid metabolism in normal rats Groups of 4 to 5 normal male Wistar rats, weighing about 200 g were treated with diphosphonates (200 mg/kg/day) p.o. for 4 to 21 days. Water soluble compounds were given in solution in 24 mM bicarbonate buffer. Lipid soluble compounds were given in corn oil. The rats were weighed, sacrificed by decapitation (under light ether anesthesia) after overnight fasting. Blood was collected and serum used for analysis. The following blood parameters reflecting changes in lipid metabolism are reported: […]
free fatty acids measured according to W. G. Duncombe (Clin. Acta 9, 122, 1964) triglycerides enzymatic method (Boehringer Mannheim Kit 126 012) phospholipids: molybdate/vanadate reaction (Boehringer Mannheim Kit 124 974) β-lipoprotein cholesterol was measured after heparin, CaCl2 precipitation according to M. Burstein et al. (La Presse Medicale 43, 974, 1958) and to D. Watson (Clin. Chim. Acta 5, 637, 1960).
as §1
as §2, with “Serum free fatty acids, triglycerides and phospholipids were measured in normal rats (N) and rats previously fed a cholesterol diet for 10 days (C.F.) Serum” for “Serum”

[3] = tested on: serum calcium; assay: Effects of acid and salt form of diphosphonates in hypercalceamic rats; assay type: in vivo, male Wistar rats; conditions: for Serum Calcium (% control values): 15% NS limit does not apply; for decrease of serum calcium: about 50 mg/kg/day in drinking water, 15 days
Protocol: Effects of acid and salt form of diphosphonates of formula (I) in hypercalceamic rats
To verify this activity the acid form of compound 4 and is monosodium salt counterpart (compound 10) were also tested by using a protol similar to the one described by Potokar (see above). Briefly, groups of 4 male Wistar rats received acid or salt form of compound 4 as 0.05% solution in drinking water corresponding to about 50 mg/kg/day. The rats were treated with the compounds for 15 days.
Serum calcium was measured in hypercalceamic rats.

[4] = tested on: alpha/beta cholesterol ratio; assay: Comparison of clofibrate, gemfibrozil and fenofibrate to compound 16: alpha/beta cholesterol ratio in normal Wistar rats; assay type: in vivo; conditions: 100 mg/kg for 10 days, n = 5
Protocol: It should be noted that these diphosphonate compounds are different and novel in comparison to the classical hypolipidemic compounds as illustrated in Table V. The diphosphonate ester used for comparison was the only one to increase the alpha/beta cholesterol ratio in control rats.
Each drug was administered at 100 mg/kg for 10 days

[5] = tested on: HDL cholesterol; conditions: rats; Day et al., Muller and Cortesi; cited from earlier work
[6] = Oral LD50 toxicity; assay type: in vivo; conditions: in vivo; oral
Text: Following the extensive pharmacological screening of these compounds, using over 2000 animals, those showing the most potential were then subjected to toxicity testing for further selection relative to their activity/toxicity risk profiles
By way of LD50 (Lethal Dose 50) the methyl diphosphonates were discovered to have a significant lower degree of toxicity. […] This represents a significant six fold difference in toxicity.

[7] = tested on: aorta and kidney calcification; conditions: hypercalceamic animal model; cited from earlier work
[8] = cholesterol fed rats (C.F), 200 mg/kg/day, read-out: Liver Chol. (% control values)
[9] = cholesterol fed rats (C.F), 200 mg/kg/day, read-out: Liver Total Lipids (% control values)
[10] = cholesterol fed rats (C.F), 200 mg/kg/day
[11] = normal rats (N), 200 mg/kg/day p.o., read-out: Serum Chol. α/β (% control values)
[12] = normal rats (N), 200 mg/kg/day p.o., read-out: Serum Phospholipids (% control values)
[13] = normal rats (N), 200 mg/kg/day p.o., 200 mg/kg/day
[14] = normal rats (N), 200 mg/kg/day p.o., read-out: Serum Free Fatty Acids (% control values)
[15] = normal rats (N), 200 mg/kg/day p.o., read-out: Serum Triglycerides (% control values)
[16] = normal rats (N), 200 mg/kg/day p.o., monosodium salt, 200 mg/kg/day
[17] = normal rats (N), 200 mg/kg/day p.o.

Compound | change in vivo at 200 mg/kg/day [1, 8] | change in vivo at 200 mg/kg/day [1, 9] | change in vivo at 200 mg/kg/day [2, 11] | change in vivo at 200 mg/kg/day [2, 12] | decreases in serum triglycerides ([2]; rats) | change in vivo at 200 mg/kg/day [2, 14] | change in vivo at 200 mg/kg/day [2, 15] | liver total lipids and/or liver cholesterol [1] | Serum Chol. α/β (% control values) [1, 10] | further results
O=P(O)(O)C(O)(c1ccc(Cl)cc1)P(=O)(O)O [4 Acid, hydroxy (p-chlorophenyl) methylenediphosphonic acid] | < 15% | < 15% | < 15% | < 15% | Significant decreases |  |  |  |  | Aorta Chol. (% control values) [1, 10]: NS (Except for serum calcium, values which differ from control values by less than 15% are considered as non significant (NS)); Aorta Total Lipids (% control values) [1, 10]: NS (Except for serum calcium, values which differ from control values by less than 15% are considered as non significant (NS)); Serum Free Fatty Acids (% control values) [2, 13]: -17%; Serum Triglycerides (% control values) [2, 13]: -29%; property to change lipid metabolism / increase HDL ([2]; rats): do not have these properties; Serum Calcium (% control values) [3]: -20%; decrease of serum calcium ([3]; listed as acid form of compound 4): 20%
CCOC(=O)C(C)(C)Oc1ccc(Cl)cc1 [Clofibrate, reference compound] | < 15% |  | < 15% | -34% |  | < 15% | 19% |  |  | alpha/beta Cholesterol Ratio [4]: 2.76 ± 0.40; decrease of plasma phospholipids ([2]; rats, comparison): 33.6%; decrease of α/β ratio ([2]; rats, comparison): 52.2%; HDL cholesterol [5]: decreases HDL cholesterol
COP(=O)(OC)C(O)(c1ccc(C(=O)c2ccc(Cl)cc2)cc1)P(=O)(OC)OC [Compound 9, Tetramethyl 1[4(4'-chlorobenzoyl)-phenyl]methane 1-hydroxy 1,1-diphosphonate] | < 15% | -25% |  | < 15% | Significant decreases | -38% | -16% | decreased significantly | +51% | Aorta Chol. (% control values) [1, 10]: -39%; Aorta Total Lipids (% control values) [1, 10]: NS (Except for serum calcium, values which differ from control values by less than 15% are considered as non significant (NS)); Serum Free Fatty Acids (% control values) [1, 10]: -52%; Serum Phospholipids (% control values) [1, 10]: +36%; Serum Triglycerides (% control values) [1, 10]: -17%; increased HDL lipids, especially HDL cholesterol [2]: observed most dramatically; α-cholesterol/β-cholesterol ratio / lipoprotein cholesterol ([2]; rats): highly significant activity
O=P(O)(O)C(O)(c1ccc(Cl)cc1)P(=O)(O)O [Compound 10, 1-hydroxy 1 (p-chlorophenyl)methane 1,1-diphosphonic acid, monosodium salt] |  |  |  |  |  |  |  |  |  | Serum Free Fatty Acids (% control values) [2, 16]: -27%; Serum Triglycerides (% control values) [2, 16]: -17%; Serum Calcium (% control values) ([3]; monosodium salt): -14%; decrease of serum calcium ([3]; listed as salt form of compound 4, monosodium salt): 14%
COP(=O)(OC)OC(c1ccccc1)P(=O)(OC)OC (stereo not drawn) [Compound 13, dimethyl α(dimethoxyphosphinyl) benzylphosphate] |  |  |  |  |  |  |  | decreased significantly | +25% | Liver Chol. (% control values) [1, 10]: -51%; Liver Total Lipids (% control values) [1, 10]: -18%; Serum Free Fatty Acids (% control values) [2, 17]: -21%; Serum Phospholipids (% control values) [2, 17]: +21%; Serum Triglycerides (% control values) [2, 17]: +32%; increase in serum phospholipid ([2]; rats): found to increase
COP(=O)(OC)OC(c1ccc(C)cc1)P(=O)(OC)OC (stereo not shown) [Compound 18] |  | < 15% | < 15% | < 15% |  |  | -33% |  |  | 
COP(=O)(OC)OC(C(C)(C)c1ccc(Cl)cc1)P(=O)(OC)OC (stereo not shown) [Compound 21, Dimethyl 1-(dimethoxyphosphinyl) 2,2-dimethyl 2(p-chlorophenyl) ethylphosphate] | -46% | -36% | < 15% | 16% | Significant decreases |  | -38% | decreased significantly | -32% | Serum Phospholipids (% control values) [1, 10]: +24%; Serum Triglycerides (% control values) [1, 10]: +28%; increase in serum phospholipid ([2]; rats): found to increase
CCOP(=O)(OCC)OC(c1ccc(Cl)cc1)P(=O)(OCC)OCC (stereo not shown) [Compound 24] |  |  | < 15% | < 15% |  |  | < 15% |  |  | LD50 [6]: 547 mg/kg
CCOP(=O)(OCC)C(Cc1ccc(Cl)cc1)P(=O)(OCC)OCC [Compound 27] | < 15% | < 15% |  | < 15% | Significant decreases | -44% | -16% | decreased significantly | -35% | Aorta Chol. (% control values) [1, 10]: NS (Except for serum calcium, values which differ from control values by less than 15% are considered as non significant (NS)); Aorta Total Lipids (% control values) [1, 10]: -60%; Serum Free Fatty Acids (% control values) [1, 10]: -65%; Serum Phospholipids (% control values) [1, 10]: NS (Except for serum calcium, values which differ from control values by less than 15% are considered as non significant (NS)); Serum Triglycerides (% control values) [1, 10]: -24%
COP(=O)(OC)C(Cc1ccc(Cl)cc1)P(=O)(OC)OC [Compound 35] | -19% | < 15% | 75% | 51% |  | -44% | < 15% | decreased significantly |  | increased HDL lipids, especially HDL cholesterol [2]: observed most dramatically; increase in serum phospholipid ([2]; rats): found to increase; also recorded: at least two fold the most active; α-cholesterol/β-cholesterol ratio / lipoprotein cholesterol ([2]; rats): highly significant activity
CC(C)OC(=O)C(C)(C)Oc1ccc(C(=O)c2ccc(Cl)cc2)cc1 [Fenofibrate] |  |  |  |  |  |  |  |  |  | alpha/beta Cholesterol Ratio [4]: 1.19 ± 0.20
Cc1ccc(C)c(OCCCC(C)(C)C(=O)O)c1 [Gemfibrozil] |  |  |  |  |  |  |  |  |  | alpha/beta Cholesterol Ratio [4]: 5.33 ± 0.31
O=P(O)(O)C(Cl)(Cl)P(=O)(O)O [dichloromethylene diphosphonate] |  |  |  |  |  |  |  |  |  | aorta and kidney calcification [7]: inhibit aorta and kidney calcification; vitamin D-induced rise in plasma calcium [7]: prevent the vitamin D-induced rise in plasma calcium
